Among the data in US7612089B2, “Tetrahydroisoquinolines as factor Xa inhibitors” (Portola Pharmaceuticals, Inc., priority 2004, dated 2009) are IC50 values, retold here.

Each structure is given as a SMILES string. Where only a bound is given, the exact number is not on record here.

In general, IC50 refers to the concentration that gives 50% inhibition. Lower therefore signals greater potency.

The target of the test is T1, human plasma protein factor Xa (Homo sapiens, UniProt P00742).
T1 construct: The human plasma protein factor Xa was purchased; purchased Haematologic Technologies (Essex Junction, Vt.); host or cells: human plasma
Briefly: Factor Xa IC50 determination (cleavage of paranitroanilide substrate S-2765). The format is biochemical. The following applies: fXa 1 nM, S2765 100 μM, Tris buffered saline pH 7.4, room temperature. An excerpt: This example illustrates methods for evaluating the compounds of the invention, along with results obtained for such assays. The in vitro and in vivo Factor Xa isoform activities of the inventive compounds can be determined by various procedures known in the art, such as a test for their ability to inhibit the activity of the Factor Xa isoform. […] The IC50 value is the concentration (in nM) of the compound required to provide 50% inhibition of Factor Xa isoform.
An in vitro assay for detecting and measuring inhibition activity against Factor Xa is as follows:
IC50 and Ki Determinations:
The substrate S-2765 (Z-D-Arg-Gly-Arg-pNA.HCl) was obtained from Diapharma (West Chester, Ohio).
The human plasma protein factor Xa was purchased from Haematologic Technologies (Essex Junction, Vt.).
All assays, which are performed in 96-well microtiter plates, measure proteolytic activity of the enzyme (factor Xa) by following cleavage of paranitroanilide substrate. The assay buffer used for proteolytic assays was Tris buffered saline (20 mM Tris, 150 mM NaCl, 5 mM CaCl2, 0.1% Bovine serum albumin (BSA), 5% Dimethly Sulfoxide (DMSO) pH 7.4). In a 96-well microtiter plate, inhibitor was serially diluted to give a range of concentrations from 0.01 nM to 10 μM (final). Duplicate sets of wells were assayed and control wells without inhibitor were included. Enzyme was added to each well, (fXa concentration=1 nM), the plate was shaken for 5 seconds and then incubated for 5 minutes at room temperature. S2765 was added (100 μM final) and the plate was shaken for 5 seconds (final liquid volume in each well was 200 μl). The degree of substrate hydrolysis was measured at 405 nm on a Thermomax plate reader (Molecular Devices, Sunnyvale, Calif.) for 2 minutes. The initial velocities (mOD/min), for each range of inhibitor concentrations, were fitted to a four parameter equation using Softmax data analysis software. The parameter C, derived from the resulting curve-fit, corresponded to the concentration for half maximal inhibition (IC50).

T1 sequence (P00742 235-488 limits assumed): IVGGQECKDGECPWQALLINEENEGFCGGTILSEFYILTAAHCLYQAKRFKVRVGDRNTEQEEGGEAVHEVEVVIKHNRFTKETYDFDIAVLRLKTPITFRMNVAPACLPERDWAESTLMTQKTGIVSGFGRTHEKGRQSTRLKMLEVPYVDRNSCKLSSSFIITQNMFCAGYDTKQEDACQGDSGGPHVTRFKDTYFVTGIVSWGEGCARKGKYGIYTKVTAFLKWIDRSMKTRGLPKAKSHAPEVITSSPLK
T1 sequence (P00742 41-179 partner limits assumed): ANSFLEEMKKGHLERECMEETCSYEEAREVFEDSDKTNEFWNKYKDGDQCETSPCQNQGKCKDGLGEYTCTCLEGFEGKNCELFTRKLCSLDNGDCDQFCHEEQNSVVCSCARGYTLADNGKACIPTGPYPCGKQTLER

In turn, `O=C(Nc1ccc(-n2ccccc2=O)cc1)[C@H]1Cc2ccccc2CN1C(=O)Nc1ccc(Cl)s1` [Example 48, (3R) N-[4-(2-pyridon-1-yl)phenyl]-2N-[5-(2-chlorothiophene)aminocarbonyl]-1,2,3,4-tetrahydroisoquinoline-3-carboxamide] had an IC50 of no more than 100 nM.
Turning to `CN1CCCN(c2ccc(NC(=O)[C@H]3Cc4ccccc4CN3C(=O)Nc3ccc(Cl)s3)cc2)CC1` [Example 49, (3R) N-[4-(4-methyl-homopiperazin-1-yl)phenyl]-2N-[5-(2-chlorothiophene)aminocarbonyl]-1,2,3,4-tetrahydroisoquinoline-3-carboxamide], the IC50 is no more than 100 nM.
